Laboratory results taken from patent US12473324B2, “Triazine-based amphiphilic compound and use thereof” (INDUSTRY-UNIVERSITY COOPERATION FOUNDATION HANYANG …, priority 2019, dated 2025).

Tests used:
[1] = Solubility of detergent (Table 1); format: physicochemical
[2] = Hydrodynamic radius (Rh) of micelles by dynamic light scattering (DLS); format: physicochemical; conditions: 1.0 wt % detergent
Description: A method of measuring the radius of micelle is not particularly limited, but a method widely known in the art may be used, and for example, the radius of micelle may be measured using a dynamic light scattering (DLS) experiment.
(§1) Specifically, the critical micelle concentrations (CMCs) were measured using a fluorescent dye, diphenylhexatriene (DPH), and the hydrodynamic radii (Rh) of micelles formed by each preparation (1.0 wt %) were determined by a dynamic light scattering (DLS) experiment. The measured results are shown in Table 1 compared to DDM which is an existing amphiphilic molecule (detergent).

[3] = Critical micelle concentration (CMC) by fluorescent dye diphenylhexatriene (DPH); format: physicochemical; conditions: DPH fluorescence
Description: A method of measuring the CMC is not particularly limited, but a method widely known in the art may be used, and for example, the CMC may be measured by a fluorescent staining method using diphenylhexatriene (DPH).
as §1

[4] = system: leucine transporter (LeuT); test: LeuT structural stability: [3H]-Leu binding by scintillation proximity assay (SPA); format: biochemical, Aquifex aeolicus; conditions: CMC+0.04 wt % or CMC+0.2 wt %, room temperature, 13-day incubation, [3H]-Leu SPA
Description: Experiments were performed to measure the structural stability of the LeuT protein by TSMs, TTGs and TEMs. Each amphiphilic compound was used at a concentration of (a) CMC+0.04 wt % or (b) CMC+0.2 wt %, and the substrate binding properties of LeuT were measured using [^3H]-Leu via scintillation proximity assay (SPA). The measurement was performed at regular intervals over the course of a 13-day and 12-day incubation at room temperature, respectively.
Specifically, a wild-type leucine transporter (LeuT) derived from the thermophilic bacterium Aquifex aeolicus was purified by a previously described method (Nature 1998, 392, 353-358 by G. Deckert et al.). LeuT was expressed in E. coli C41 (DE3) transformed with pET16b encoding the C-terminal 8×His-tagged transporter (expression plasmids were provided from Dr E. Gouaux, Vollum Institute, Portland, Oregon, USA). In summary, after a bacterial membrane was isolated and solubilized in 1 wt % DDM, the protein was bound to Ni^2+-NTA resin (Life Technologies, Denmark), and eluted in 20 mM Tris-HCl (pH 8.0), 1 mM NaCl, 199 mM KCl, 0.05% (w/v) DDM and 300 mM imidazole. Then, the purified LeuT (0.5 mg/ml) was diluted with buffers supplemented with TSMs, TTGs, TEMs or DDM at a final concentration of CMC+0.04% (w/v) or CMC+0.2% (w/v) except for DDM and imidazole in the equivalent buffer described above. Protein samples were incubated at room temperature for 13 days, centrifuged at a specified time, and protein properties were confirmed by measuring [^3H]-Leucine binding ability using SPA. SPA was performed with 5 μL of each protein sample in a buffer containing 450 mM NaCl and each of TSMs and TEMs (or DDM). The SPA reaction was performed in the presence of 20 nM [^3H]-Leucine and 1.25 mg/ml copper chelate (His-Tag) YSi beads (PerkinElmer, Denmark). Overall [^3H]-Leucine coupling to each sample was measured using a MicroBeta liquid scintillation counter (Perkin Elmer).

Row | SMILES | solubility [1] | Rh (nm) [2] | CMC [3] | LeuT substrate binding properties over incubation [4]
1 | CCCCCCCCNc1nc(NCCCCCCCC)nc(NC(CO[C@@H]2O[C@H](CO)[C@@H](O)[C@H](O)[C@H]2O)(CO[C@@H]2O[C@H](CO)[C@@H](O)[C@H](O)[C@H]2O)CO[C@@H]2O[C@H](CO)[C@@H](O)[C@H](O)[C@H]2O)n1 [TTG-A8] | ~10% | 2.1 ± 0.56 nm | ~0.6 mM | 
2 | CCCCCCCCCNc1nc(NCCCCCCCCC)nc(NC(CO[C@@H]2O[C@H](CO)[C@@H](O)[C@H](O)[C@H]2O)(CO[C@@H]2O[C@H](CO)[C@@H](O)[C@H](O)[C@H]2O)CO[C@@H]2O[C@H](CO)[C@@H](O)[C@H](O)[C@H]2O)n1 [TTG-A9] | ~10% | 2.2 ± 0.20 nm | ~0.5 mM | 
3 | CCCCCCCCCCNc1nc(NCCCCCCCCCC)nc(NC(CO[C@@H]2O[C@H](CO)[C@@H](O)[C@H](O)[C@H]2O)(CO[C@@H]2O[C@H](CO)[C@@H](O)[C@H](O)[C@H]2O)CO[C@@H]2O[C@H](CO)[C@@H](O)[C@H](O)[C@H]2O)n1 [TTG-A10] | ~10% | 2.3 ± 0.14 nm | ~0.3 mM | 
4 | CCCCCCCCCCCNc1nc(NCCCCCCCCCCC)nc(NC(CO[C@@H]2O[C@H](CO)[C@@H](O)[C@H](O)[C@H]2O)(CO[C@@H]2O[C@H](CO)[C@@H](O)[C@H](O)[C@H]2O)CO[C@@H]2O[C@H](CO)[C@@H](O)[C@H](O)[C@H]2O)n1 [TTG-A11] | ~10% | 2.4 ± 0.11 nm | ~0.2 mM | 
5 | CCCCCCCCCCCCNc1nc(NCCCCCCCCCCCC)nc(NC(CO[C@@H]2O[C@H](CO)[C@@H](O)[C@H](O)[C@H]2O)(CO[C@@H]2O[C@H](CO)[C@@H](O)[C@H](O)[C@H]2O)CO[C@@H]2O[C@H](CO)[C@@H](O)[C@H](O)[C@H]2O)n1 [TTG-A12] | ~5% | 2.5 ± 0.07 nm | ~0.04 mM | 
6 | CCCCCCCCCCCCCCNc1nc(NCCCCCCCCCCCCCC)nc(NC(CO[C@@H]2O[C@H](CO)[C@@H](O)[C@H](O)[C@H]2O)(CO[C@@H]2O[C@H](CO)[C@@H](O)[C@H](O)[C@H]2O)CO[C@@H]2O[C@H](CO)[C@@H](O)[C@H](O)[C@H]2O)n1 [TTG-A14] | ~1% | 3.2 ± 0.05 nm | ~0.008 mM | 
7 | CCCCCCCSc1nc(NC(CO[C@@H]2O[C@H](CO)[C@@H](O)[C@H](O)[C@H]2O)(CO[C@@H]2O[C@H](CO)[C@@H](O)[C@H](O)[C@H]2O)CO[C@@H]2O[C@H](CO)[C@@H](O)[C@H](O)[C@H]2O)nc(SCCCCCCC)n1 [TTG-T7] | ~10% | 2.8 ± 0.16 nm | ~0.02 mM | 

More lines, now with the values ahead:

Row | solubility [1] | Rh (nm) [2] | CMC [3] | LeuT substrate binding properties over incubation [4] | SMILES
8 | ~1% | 25.2 ± 1.2 nm | ~0.001 mM |  | CCCCCCCCCCCOc1nc(OCCCCCCCCCCC)nc(N(CCO[C@@H]2O[C@H](CO)[C@@H](O[C@H]3O[C@H](CO)[C@@H](O)[C@H](O)[C@H]3O)[C@H](O)[C@H]2O)CCO[C@@H]2O[C@H](CO)[C@@H](O[C@H]3O[C@H](CO)[C@@H](O)[C@H](O)[C@H]3O)[C@H](O)[C@H]2O)n1 [TEM-E11]
9 | ~5% | 4.3 ± 0.0 nm | ~0.0025 mM | best substrate binding activity | CCCCCCCCCCSc1nc(SCCCCCCCCCC)nc(N(CCO[C@@H]2O[C@H](CO)[C@@H](O[C@H]3O[C@H](CO)[C@@H](O)[C@H](O)[C@H]3O)[C@H](O)[C@H]2O)CCO[C@@H]2O[C@H](CO)[C@@H](O[C@H]3O[C@H](CO)[C@@H](O)[C@H](O)[C@H]3O)[C@H](O)[C@H]2O)n1 [TEM-T10]
10 | ~1% | 31.8 ± 0.3 nm | ~0.001 mM |  | CCCCCCCCCCCSc1nc(SCCCCCCCCCCC)nc(N(CCO[C@@H]2O[C@H](CO)[C@@H](O[C@H]3O[C@H](CO)[C@@H](O)[C@H](O)[C@H]3O)[C@H](O)[C@H]2O)CCO[C@@H]2O[C@H](CO)[C@@H](O[C@H]3O[C@H](CO)[C@@H](O)[C@H](O)[C@H]3O)[C@H](O)[C@H]2O)n1 [TEM-T11]
11 | ~10% | 3.4 ± 0.1 nm | ~0.04 mM |  | CCCCCCCOc1nc(NC(CO[C@@H]2O[C@H](CO)[C@@H](O[C@H]3O[C@H](CO)[C@@H](O)[C@H](O)[C@H]3O)[C@H](O)[C@H]2O)CO[C@@H]2O[C@H](CO)[C@@H](O[C@H]3O[C@H](CO)[C@@H](O)[C@H](O)[C@H]3O)[C@H](O)[C@H]2O)nc(OCCCCCCC)n1 [TSM-E7]
12 | ~10% | 3.6 ± 0.1 nm | ~0.02 mM | best substrate binding activity | CCCCCCCCOc1nc(NC(CO[C@@H]2O[C@H](CO)[C@@H](O[C@H]3O[C@H](CO)[C@@H](O)[C@H](O)[C@H]3O)[C@H](O)[C@H]2O)CO[C@@H]2O[C@H](CO)[C@@H](O[C@H]3O[C@H](CO)[C@@H](O)[C@H](O)[C@H]3O)[C@H](O)[C@H]2O)nc(OCCCCCCCC)n1 [TSM-E8]
13 | ~10% | 4.0 ± 0.1 nm | ~0.01 mM |  | CCCCCCCCCOc1nc(NC(CO[C@@H]2O[C@H](CO)[C@@H](O[C@H]3O[C@H](CO)[C@@H](O)[C@H](O)[C@H]3O)[C@H](O)[C@H]2O)CO[C@@H]2O[C@H](CO)[C@@H](O[C@H]3O[C@H](CO)[C@@H](O)[C@H](O)[C@H]3O)[C@H](O)[C@H]2O)nc(OCCCCCCCCC)n1 [TSM-E9]
14 | ~5% | 38.2 ± 1.8 nm | ~0.003 mM | best substrate binding activity | CCCCCCCCCCSc1nc(NC(CO[C@@H]2O[C@H](CO)[C@@H](O[C@H]3O[C@H](CO)[C@@H](O)[C@H](O)[C@H]3O)[C@H](O)[C@H]2O)CO[C@@H]2O[C@H](CO)[C@@H](O[C@H]3O[C@H](CO)[C@@H](O)[C@H](O)[C@H]3O)[C@H](O)[C@H]2O)nc(SCCCCCCCCCC)n1 [TSM-T10]
15 | ~1% | 94.8 ± 45 nm | ~0.001 mM |  | CCCCCCCCCCCSc1nc(NC(CO[C@@H]2O[C@H](CO)[C@@H](O[C@H]3O[C@H](CO)[C@@H](O)[C@H](O)[C@H]3O)[C@H](O)[C@H]2O)CO[C@@H]2O[C@H](CO)[C@@H](O[C@H]3O[C@H](CO)[C@@H](O)[C@H](O)[C@H]3O)[C@H](O)[C@H]2O)nc(SCCCCCCCCCCC)n1 [TSM-T11]
16 | ~10% | 2.9 ± 0.09 nm | ~0.015 mM |  | CCCCCCCCSc1nc(NC(CO[C@@H]2O[C@H](CO)[C@@H](O)[C@H](O)[C@H]2O)(CO[C@@H]2O[C@H](CO)[C@@H](O)[C@H](O)[C@H]2O)CO[C@@H]2O[C@H](CO)[C@@H](O)[C@H](O)[C@H]2O)nc(SCCCCCCCC)n1 [TTG-T8]
